Experiment [1] relates to mouse bone marrow derived osteoprogenitor cells. Nature of the experiment: In vitro osteoblast differentiation assay (cellular alkaline phosphatase). The experiment is classed as cell-based. The note with it: LA number = ng/ml lanthanum; lanthanum (III) ion = 100-15000 ng/ml; 17-estradiol 10^−10 M. The text has this:
We have established a culture model in which mouse bone marrow derived osteoprogenitor cells first proliferate and then differentiate to osteoblasts capable of forming mineralized bone nodules (Qu et al. 1998, Qu et al. 1999). We confirmed this by following the expression of several markers of the osteoblastic phenotype and by studying the morphology of cultures at light and electron microscopic level. […] Thus, this culture system fulfills requirements of an in vitro model useful for studying differentiation of osteoprogenitor cells into bone synthesizing osteoblasts. […] Animals were killed by cervical dislocation. Both femora were removed and the soft tissues were detached aseptically. Metaphyses from both ends were cut off and bone marrow cells were collected by flushing the diaphysis with culture medium: phenol red-free-α-modified essential medium (α-MEM (Gibco BRL, Paisley, UK)). […] The cells were cultured for 6 days and half of the media […] days. […] Cells were washed with warm PBS and adherent cells were detached using trypsin-EDTA. […] The test substances were added at the beginning of the secondary culture without estrogen, and every time when the medium was changed. The number of osteoblasts formed was determined by measuring cellular alkaline phosphatase (ALP) activity in the culture. […] Louis, Mo., USA), and overnight freezing. ALP activity was determined colorimetrically using p-nitrophenylphosphate as substrate at pH 9.7 and determining the optical density at 405 nm. In parallel, protein contents of the wells were determined by the BIO-RAD protein assay, and the specific ALP activity is expressed as units/mg protein. […] Osteoblast differentiation was determined by measuring cellular alkaline phosphatase (ALP) activities and total protein amounts from cell lysates. The ALP activities were divided with the corresponding protein amounts to obtain specific activities of ALP. The results are shown as relative specific activities obtained by dividing each individual value with the mean value of the baseline group.

For experiment [2], the system named is mature osteoblasts. Nature of the experiment: In vitro bone formation assay (calcium deposition into bone nodules). Type of experiment: cell-based, mouse. As to conditions: LA number = ng/ml lanthanum; lanthanum (III) / lanthanum (III) ion = all concentrations tested, 100 to 15,000 ng/ml; 17-estradiol 10^−10M. How it is done: The activity of mature osteoblasts can be determined by quantifying their ability to form mineralized bone matrix. This is done by demineralizing the formed bone matrix, and determining the amount of calcium released. Thus, this culture system fulfills requirements of an in vitro model useful for studying the bone formation activity of mature osteoblasts. […] At the end of the culture, the amount of calcium deposited during the culture period was determined, and the amount of bone formation (calcium deposition) calculated. […] Extracts of 50 μl were complexed with 1 ml determined o-cresol-phthalein-complexon. The colorimetric reaction was determined at 570 nm in a spectrophotometer. Absolute calcium concentrations were determined by comparison with a calibrated standard provided by the vendor. In this study, the effect of lanthanum carbonate on bone formation was tested. […] The amount of bone formation was determined by measuring the amount of calcium deposited into bone nodules formed by mature osteoblasts. The results are shown as the amount of calcium released (mmol/L) from the bone nodules after HCl extraction. The baseline values are too low to show the results using relative amounts as was done in the other assays.

Experiment [3] concerns osteoclasts cultured on bone slices. Nature of the experiment: In vitro bone resorption assay (osteoclasts on bovine bone slices, CrossLaps). Type of experiment: cell-based, rat. The note with it: LA number = ng/ml lanthanum; lanthanum (III) ion = any of the concentrations tested (100-15000 ng/ml); bafilomycin Al 10 nM. From the text: The method of osteoclast culture on bone slices was originally described by Boyde et al. (1984) and by Chambers et al. (1984). For cell culture, we used a method slightly modified from the original methods (Lakkakorpi et al. 1989, Lakkakorpi and Väänänen, 1991). The rate of bone resorption in the cultures was originally determined by counting the number of resorption pits on each bone or dentine slice using a microscope with phase contrast objectives (Sundquist et al. 1990). Later, the pits were visualized using Wheat Germ Agglutinin lectin that specifically binds to the resorbed area in bone (Selander et al. 1994), making it possible to quantify the total resorbed area using a microscope and computer-assisted image analysis system (Laitala and Väänänen 1994, Hentunen et al. 1995). We used a commercially available method (CrossLaps for cultures, Osteometer Biotech, Herlev, Denmark) to detect the amount of collagen cross-links released into the culture medium as an index of the bone resorption rate (Bagger et al., 1999).
The study protocol uses a method where osteoclasts are cultured on bone slices and allowed to resorb bone. The system is ideal for determining the effect of drug candidates on the bone resorbing activity of osteoclasts. Drug candidates are added into the cell cultures at the beginning of the culture period, and the osteoclasts allowed to resorb bone for 3 days. The amount of bone resorbed during the culture period is determined and compared to the amount of bone resorbed in control cultures (those cultured in the absence of drug candidates).
Transverse 0.1 mm thick slices of cortical bone were cut from the diaphysis of fresh bovine femurs (Atria Slaughterhouse, Oulu, Finland) using a low-speed diamond saw, cleaned by ultrasonication in multiple changes of sterile distilled water, and stored at 4° C. before use. Long bones were removed from 1-day-old rat pups killed by decapitation. […] The resulting suspension of dispersed cells and bone fragments was agitated using a plastic pipette. Larger fragments were allowed to sediment for a few seconds and the supernatant was seeded onto the bone slices pre-wetted in the medium. After a settling period of 30 minutes at 37° C., the bone slices were washed by dipping in fresh medium, and then transferred to wells in 24-well culture dishes containing osteoclast culture medium. The bone slices were incubated in a humidified atmosphere of 95% air and 5% carbon dioxide at 37° C. for 72 hours.
After the culture period, the amount of bone resorption was determined by measuring the amount of collagen cross-links released into the culture medium using a commercial kit (CrossLaps for cultures, Osteometer Biotech) according to the manufacturer s instructions. The number of osteoclasts in each culture was determined by microscopic counting of the amount of TRAP-positive multinuclear cells, and the results are given as the number of collagen cross-links released per one osteoclast.
In the bone resorption assay, the amount of medium CrossLaps (nM) released into the culture medium was determined and the number of osteoclasts in the corresponding cultures calculated. The medium CrossLaps amounts were divided with the osteoclast numbers in the corresponding cultures, and the results are given on Table 1 as relative medium CrossLaps amounts per osteoclasts. The relative values were obtained by dividing each individual value with the mean value of the baseline group.

Regarding `C[C@]12CC[C@@H]3c4ccc(O)cc4CC[C@H]3[C@@H]1CC[C@@H]2O` [17-β estradiol, reference compound], the “Effect on osteoblast differentiation, in words” value in experiment [1] was “activated osteoblast differentiation significantly”. Further, the “Effect on bone formation activity of mature osteoblasts, in words” value in experiment [2] was “activated bone formation significantly”.
On to `CO/C1=C\C(C)=C\[C@@H](C)[C@@H](O)[C@@H](C)C/C(C)=C/C=C/[C@H](OC)[C@@H]([C@@H](C)[C@@H](O)[C@H](C)[C@@]2(O)C[C@@H](O)[C@H](C)[C@@H](C(C)C)O2)OC1=O` [Bafilomycin Al, reference compound], for which the “Effect on bone resorption / bone resorbing activity of mature osteoclasts, in words” value in experiment [3] is “completely inhibited bone resorption”.

The values are drawn from patent US7078059B2, “Treatment of bone diseases” (Shire Holdings AG, priority 2000, dated 2006).
